Laboratory results: article PMC2812660 (Biochemical and biophysical research communications, 2009)
*1 amine or outer side, *2 acyl side, *3 side chain or, on linkers, in order; H or OH if unused. Where a SMILES comes first, the peptide text is derived from it. The star is where a group is joined. AMC = Cc1cc(=O)oc2cc(N*)ccc12; Suc = O=C(CCC(=O)[*:2])[*:1]

Target: 20S proteasome (Oryctolagus cuniculus, UniProt G1T4Q9)
Test: fluorogenic chymotrypsin-like activity assay
Assay type: biochemical
Conditions: chymotrypsin-like site; control incubation without added SAM/SAH

SMILES: Cc1cc(=O)oc2cc(NC(=O)[C@H](Cc3ccc(O)cc3)NC(=O)[C@@H](NC(=O)[C@H](CC(C)C)NC(=O)[C@H](CC(C)C)NC(=O)CCC(=O)O)C(C)C)ccc12 [Suc-LLVY-AMC] (Suc-LLVY-{AMC})
- fluorogenic chymotrypsin-like activity assay: activity was detected in vitro using the fluorogenic substrate Suc-LLVY-AMC
